In US11857535B2, “Methods of treating mutant lymphomas” (Kymera Therapeutics, Inc., priority 2020, dated 2024):
pIC50: −log10 of the molar value. Like-named read-outs stand apart in the source and are kept apart here.

How the values were obtained:
[1] = Compound exposure (PK) in plasma, spleen and tumor of OCI-Ly10 xenograph mice; type: in vivo, mouse
Experimental: At termination: At pre-determined time points based on study design, animals were humanely sacrificed by CO2. Blood was obtained by cardiac puncture for isolation of plasma, any residual tumor was removed and divided in 2 portions, 1 (minimal) for terminal compound exposure and 1 to determine IRAK4 and actin. Compound was determined in tumor and plasma using LC/MS with calibrated standards.

lymphocytes = assay: Lymphopenia studies (Example 8, FIG. 5); type: in vivo
[2] = NHP clinical observations and body weight (tolerability); type: in vivo, Cynomolgus monkeys
Experimental: Body weight measurement at pre-dose on Day 1, Day 4, Day 7, Day 14. Monitor clinical observation of the animal for 14 days post dose.
Twice daily (approximately 9:30 a.m. and 4:00 p.m.), Cage-side observations for general health and appearance will be done. Animals will be given physical examination prior to study initial to confirm animals' health. Day of dosing: before and after dosing, and before and after each PK sample time point through 24 hour PK sample. Twice daily thereafter. General condition, behavior, activity, excretion, respiration or other unusual observations noted throughout the study will be recorded in the raw data. When necessary, additional clinical observations will be performed and recorded.
All animals will be weighed on the dosing day prior to dosing to determine the dose volume to be administered, and again weekly thereafter.
All animals will be weighed on the dosing day prior to dosing to determine the dose volume to be administered, and again weekly after.

OCI-Ly10 = assay: CTG cell viability assay - OCI-Ly10; type: cell-based; conditions: Homo sapiens, 96 h; OCI-Ly10, 4 days
Experimental: Compound-mediated viability effect on OCI-Ly10 or SUDHL-2 was quantitatively determined using the CellTiter-Glo® Luminescent Cell Viability Assay kit from Promega (Catalog number G7570) following manufacturer's recommended procedures. Briefly, OCI-Ly10 or SUDHL-2 cells were seeded into 384 well plates (Grenier Bio-One, Catalog number 781080) with a density of 10,000 cells per well. Compounds were then added to the assay plate with final top concentration of 10 μM and 1:3 dilution series with total of 9 doses. The final DMSO concentration was normalized to 0.2%. The assay plates were incubated at 37° C. for 4 days under 5% CO2. Then the assay plate was equilibrated at room temperature for 10 minutes. To determine cell viability, 30 μL CellTiter Glo reagent was added to each well and the assay plate was centrifuged at 1000 rpm for 30 second, incubated at room temperature for 10 min, and analyzed by detecting the luminescence using a multimode plate reader (EnVision 2105, PerkinElmer). The data was then analyzed by software Prism 7.0 from GraphPad and the dose response curves were fit using a three-parameter logistic equation to calculate IC50.

[3] = Human dose prediction by matching AUCs with intermittent dosing regimens in mice models; conditions: mouse, read-out: Weekly AUC
Experimental: Human dose predictions from intermittent dosing supports dose targets for both IV and PO dosing.
IV formulation up to 300 mg/dose is feasible (exposure for efficacy is 100-300 mg/dose). Dosing to ≥400 mg likely possible (>80% POS based on initial formulation assessment). Projected PO upper dose of 900 mg/day is feasible. May be divided into BID dosing to achieve exposure. High pill burden or unusual formulation strategy (e.g., mix and drink) may be needed. PO versus IV dosing in compared in Table 14.

[4] = C.B. 17 SCID, mouse, plasma, 10 mg/kg, 10 mpk PO

## CC(C)(O)c1cc2nc([C@H]3CC[C@H](CN4CC5(CC(CCNc6cccc7c6C(=O)N(C6CCC(=O)NC6=O)C7=O)C5)C4)CC3)sc2cc1NC(=O)c1cccc(C(F)(F)F)n1 (some centres unmarked) [Compound A, N-(2-((1r,4r)-4-((6-(2-((2-(2,6-dioxopiperidin-3-yl)-1,3-dioxoisoindolin-4-yl)amino)ethyl)-2-azaspiro[3.3]heptan-2-yl)methyl)cyclohexyl)-5-(2-hydroxypropan-2-yl)benzo[d]thiazol-6-yl)-6-(trifluoromethyl)picolinamide]
[1]; 10 mpk PO
  F: 19.0%
[1]; [4]
  AUC(0-t): 2.83 µM·h
  Cmax: 180 nM
  Tmax: 8 h
  half-life: 9.35 h
[1]; C.B. 17 SCID, mouse, plasma, 3 mpk, after 5d dosing, read-out: Plasma C24 h
  concentration at 24 h: 10 nM
[1]; C.B. 17 SCID, mouse, plasma, 10 mpk PO, read-out: C24 h
  concentration at 24 h: 55 nM
[1]; C.B. 17 SCID, mouse, plasma, 10 mpk, after 5d dosing, read-out: Plasma C24 h
  concentration at 24 h: 80 nM
[1]; C.B. 17 SCID, mouse, plasma, 30 mpk, after 5d dosing, read-out: Plasma C24 h
  concentration at 24 h: 640 nM
[1]; C.B. 17 SCID, mouse, plasma, based on either a 3 mpk or 10 mpk dose, read-out: Target exposure for efficacy in OCI-Ly10: steady state C24h
  concentration at 24 h: 10 to 80 nM
[1]; C.B. 17 SCID, mouse, spleen, 3 mpk, after 5d dosing, read-out: Spleen C24 h
  concentration at 24 h: 500 nM
[1]; C.B. 17 SCID, mouse, spleen, 10 mpk, after 5d dosing, read-out: Spleen C24 h
  concentration at 24 h: 4100 nM
[1]; C.B. 17 SCID, mouse, spleen, 30 mpk, after 5d dosing, read-out: Spleen C24 h
  concentration at 24 h: 59000 nM
[1]; C.B. 17 SCID, mouse, tumor, 3 mpk, after 5d dosing, read-out: Tumor C24 h
  concentration at 24 h: 430 nM
[1]; C.B. 17 SCID, mouse, tumor, 10 mpk, after 5d dosing, read-out: Tumor C24 h
  concentration at 24 h: 4200 nM
[1]; C.B. 17 SCID, mouse, tumor, 30 mpk, after 5d dosing, read-out: Tumor C24 h
  concentration at 24 h: 64000 nM
[1]; single dose, FIG. 4
  tissue exposure relative to plasma: high tissue exposure relative to plasma
lymphocytes; IV
  Lymphocyte declines: Lymphocyte declines are transient
lymphocytes; PO
  Lymphocyte declines: Lymphocyte declines are transient
lymphocytes; intermittent dosing
  Lymphopenia on intermittent dosing: transient
  Lymphopenia: recovery by day: 7-14 D
[2]; IV, exposures up to 4.4X MED
  GI events: No observed GI events
[2]; NHP, IV
  Hematuria: Not observed in NHP: slower
[2]; NHP, IV 5 mg/kg, D1, 2
  Clinical Observations: None
[2]; NHP, IV 10 mg/kg, D1
  Clinical Observations: None
[2]; NHP, IV 10 mg/kg, D1, 2
  Clinical Observations: None
[2]; NHP, IV 20 mg/kg, D1
  Clinical Observations: None
[2]; NHP, PO 10 mg/kg, D1, D4
  Clinical Observations: Diarrhea
[2]; NHP, PO 25 mg/kg, D1, D2
  Clinical Observations: Diarrhea, Emesis
[2]; NHP, PO 25 mg/kg, D1, D4
  Clinical Observations: Diarrhea, Emesis
[2]; NHP, PO 50 mg/kg, D1
  Clinical Observations: Diarrhea
[2]; NHP, PO 50 mg/kg, D1, D4
  Clinical Observations: Diarrhea, Emesis
[2]; NHP, PO 100 mg/kg, D1
  Clinical Observations: Diarrhea, Emesis
[2]; PO, observed in all TA PO dose groups, likely tolerable
  GI events: GI events (e.g., diarrhea and emesis)
OCI-Ly10
  pIC50: > 7.30
[3]; 3 mg/kg, OCI-Ly10 model, IV 3 mpk BIW
  AUC: 12 µM·h
[3]; 10 mg/kg, OCI-Ly10 model, PO 10 mpk BIW
  AUC: 7 µM·h
[3]; 12 mg/kg, OCI-Ly10 model, IV 12 mpk QW
  AUC at 1 week: 24 µM·h
[3]; 30 mg/kg, DHL2 model, PO 30 mpk BIW
  AUC: 18 µM·h
[3]; 30 mg/kg, OCI-Ly10 model, PO 30 mpk QW
  AUC at 1 week: 18 µM·h
[3]; DHL2 model, IV ~10 (est.) mpk BIW, estimated
  AUC: ~36 µM·h
